Reference: publication PMC7316994, “In Vitro Pharmacological Profile of a New Small Molecule Bradykinin B2 Receptor Antagonist” (Frontiers in Pharmacology, 2020)

Columns and labels:
rat B2 receptor = molecular target: T1, rat B2 receptor (Rattus norvegicus, UniProt P25023); test: Ca^2+ mobilization assay, HEK293T cells; format: cell-based; conditions: BK at EC80 4.32 nM
T1 construct: host or cells: HEK293T cells
T1 sequence (P25023 1-396): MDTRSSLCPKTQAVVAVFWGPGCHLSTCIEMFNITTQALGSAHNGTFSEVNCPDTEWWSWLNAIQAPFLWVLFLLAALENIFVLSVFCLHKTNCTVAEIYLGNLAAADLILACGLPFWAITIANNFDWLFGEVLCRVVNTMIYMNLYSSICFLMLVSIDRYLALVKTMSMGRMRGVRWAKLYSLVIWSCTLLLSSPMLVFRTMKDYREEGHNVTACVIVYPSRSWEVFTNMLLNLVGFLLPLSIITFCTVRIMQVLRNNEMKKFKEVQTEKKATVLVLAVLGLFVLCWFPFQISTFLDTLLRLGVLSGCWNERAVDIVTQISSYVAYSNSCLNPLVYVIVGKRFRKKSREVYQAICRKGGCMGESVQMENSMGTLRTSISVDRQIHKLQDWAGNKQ

[1] = tested on: Benzodiazepine BZD (central); test: radioligand binding (Table S2); conditions: [3H] Flunitrazepam, Rat cerebral cortex
Bombesin BB1 = molecular target: T2, Bombesin BB1 (Homo sapiens, UniProt P28336); test: radioligand binding (Table S2); conditions: [125I] [Tyr4]-bombesin, Human recombinant CHO cells
T2 construct: host or cells: CHO cells

Dopamine D2S = molecular target: T3, Dopamine D2S (Homo sapiens, UniProt P14416); test: radioligand binding (Table S2); conditions: [3H] 7-OH-DPAT, Human recombinant HEK-293 cells
T3 construct: host or cells: HEK-293 cells

Endothelin ETA = molecular target: T4, Endothelin ETA (Homo sapiens, UniProt P25101); test: radioligand binding (Table S2); conditions: [125I] Endothelin-1, Human recombinant CHO cells
T4 construct: host or cells: CHO cells

[2] = molecular target: T5, Glutamate, metabotropic, mGlu5 (Homo sapiens, UniProt P41594); test: radioligand binding (Table S2); conditions: [3H] Quisqualic acid, Human recombinant CHO-K1 cells
T5 construct: host or cells: CHO-K1 cells

Kainate = test: radioligand binding (Table S2); conditions: [3H] Kainic acid, Rat cerebral cortex
Melanocortin MC4 = molecular target: T6, Melanocortin MC4 (Homo sapiens, UniProt P32245); test: radioligand binding (Table S2); conditions: [125I] NDP-α-MSH, Human recombinant CHO cells
T6 construct: host or cells: CHO cells

Melatonin MT2 (ML1B) = molecular target: T7, Melatonin MT2 (ML1B) (Homo sapiens, UniProt P49286); test: radioligand binding (Table S2); conditions: [125I] 2-iodomelatonin, Human recombinant CHO cells
T7 construct: host or cells: CHO cells

Neuropeptide Y1 = molecular target: T8, Neuropeptide Y1 (Homo sapiens, UniProt P25929); test: radioligand binding (Table S2); conditions: [125I] Peptide YY, SK-N-MC cells (endogenous)
T8 construct: (endogenous); host or cells: SK-N-MC cells

[3] = molecular target: Nicotinic acetylcholine α1, bungarotoxin (Homo sapiens, UniProt P02708+P07510+Q07001); test: biochemical; format: binding; conditions: read-out: % Inhibition @ 10 µM
Orexin OX2 = molecular target: T9, Orexin OX2 (Homo sapiens, UniProt O43614); test: radioligand binding (Table S2); conditions: [125I] Orexin A, Human recombinant HEK-293 cells
T9 construct: host or cells: HEK-293 cells

[4] = tested on: Potassium channel (Ca activated) SKCa channel; test: radioligand binding (Table S2); conditions: [125I] Apamin, Rat cerebral cortex
Prostanoid EP1 = molecular target: T10, Prostanoid EP1 (Homo sapiens, UniProt P34995); test: radioligand binding (Table S2); conditions: [3H] Prostaglandin E2, Human recombinant HEK-293 cells
T10 construct: host or cells: HEK-293 cells

Serotonin 5-HT2A = molecular target: T11, Serotonin 5-HT2A (Homo sapiens, UniProt P28223); test: radioligand binding (Table S2); conditions: [125I] (±)DOI, Human recombinant HEK-293 cells
T11 construct: host or cells: HEK-293 cells

Serotonin 5-HT4 e = molecular target: T12, Serotonin 5-HT4 e (Homo sapiens, UniProt Q13639); test: radioligand binding (Table S2); conditions: [3H] GR 113808, Human recombinant CHO cells
T12 construct: host or cells: CHO cells

Somatostatin sst1 = Somatostatin sst1 (Homo sapiens, UniProt P30872); test: radioligand binding (Table S2); conditions: [125I] Tyr11-Somatostatin 14, Human recombinant CHO-S cells
PDE4D2 = PDE4D2 (Homo sapiens, UniProt Q08499); test: enzyme assay (Table S2); format: biochemical; conditions: [3H]cAMP + cAMP (0.5 µM), Scintillation counting
PDE5 (non-selective) = PDE5 (non-selective) (Homo sapiens, UniProt O76074); test: enzyme assay (Table S2); format: biochemical; conditions: Human platelets, [3H]cGMP + cGMP (1 µM)
PKCε = molecular target: T13, PKCε (Homo sapiens, UniProt Q02156); test: enzyme assay (Table S2); format: biochemical; conditions: HTRF
T13 construct: host or cells: insect cells

Vasopressin V2 = molecular target: T14, Vasopressin V2 (Homo sapiens, UniProt P30518); test: functional assay, cAMP HTRF, CHO cells (Table S2); format: cell-based; conditions: read-out: % inhibition of reference agonist response @ 10 µM (antagonist effect), AVP (0.03 nM)
T14 construct: expressed in transfected cells; host or cells: CHO cells

Adenosine A2B = Adenosine A2B (Homo sapiens, UniProt P29275); test: radioligand binding (Table S2); conditions: read-out: % Inhibition @ 10 µM
Angiotensine AT1 = Angiotensine AT1 (Homo sapiens, UniProt P30556); test: radioligand binding (Table S2); conditions: read-out: % Inhibition @ 10 µM
Cannabinoid CB2 = Cannabinoid CB2 (Homo sapiens, UniProt P34972); test: radioligand binding (Table S2); conditions: read-out: % Inhibition @ 10 µM
Muscarinic M2 = Muscarinic M2 (Homo sapiens, UniProt P08172); test: radioligand binding (Table S2); conditions: read-out: % Inhibition @ 10 µM
Muscarinic M4 = Muscarinic M4 (Homo sapiens, UniProt P08173); test: radioligand binding (Table S2); conditions: read-out: % Inhibition @ 10 µM
Muscarinic M5 = Muscarinic M5 (Homo sapiens, UniProt P08912); test: radioligand binding (Table S2); conditions: read-out: % Inhibition @ 10 µM

Sequence of Muscarinic M4 (P08173 whole entry): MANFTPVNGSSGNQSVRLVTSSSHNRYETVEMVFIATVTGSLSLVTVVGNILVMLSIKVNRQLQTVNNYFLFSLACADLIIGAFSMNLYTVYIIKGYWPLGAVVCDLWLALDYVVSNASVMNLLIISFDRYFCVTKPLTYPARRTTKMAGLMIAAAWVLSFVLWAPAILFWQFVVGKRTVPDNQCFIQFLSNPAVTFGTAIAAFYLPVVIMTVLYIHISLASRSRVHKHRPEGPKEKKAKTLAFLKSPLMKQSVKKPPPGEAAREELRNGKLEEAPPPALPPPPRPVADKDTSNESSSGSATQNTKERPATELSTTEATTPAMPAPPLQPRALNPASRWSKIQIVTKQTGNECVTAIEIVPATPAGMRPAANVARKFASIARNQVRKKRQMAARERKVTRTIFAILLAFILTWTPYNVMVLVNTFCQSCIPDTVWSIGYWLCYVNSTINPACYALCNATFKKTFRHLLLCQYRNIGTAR
T13 sequence (Q02156 whole entry): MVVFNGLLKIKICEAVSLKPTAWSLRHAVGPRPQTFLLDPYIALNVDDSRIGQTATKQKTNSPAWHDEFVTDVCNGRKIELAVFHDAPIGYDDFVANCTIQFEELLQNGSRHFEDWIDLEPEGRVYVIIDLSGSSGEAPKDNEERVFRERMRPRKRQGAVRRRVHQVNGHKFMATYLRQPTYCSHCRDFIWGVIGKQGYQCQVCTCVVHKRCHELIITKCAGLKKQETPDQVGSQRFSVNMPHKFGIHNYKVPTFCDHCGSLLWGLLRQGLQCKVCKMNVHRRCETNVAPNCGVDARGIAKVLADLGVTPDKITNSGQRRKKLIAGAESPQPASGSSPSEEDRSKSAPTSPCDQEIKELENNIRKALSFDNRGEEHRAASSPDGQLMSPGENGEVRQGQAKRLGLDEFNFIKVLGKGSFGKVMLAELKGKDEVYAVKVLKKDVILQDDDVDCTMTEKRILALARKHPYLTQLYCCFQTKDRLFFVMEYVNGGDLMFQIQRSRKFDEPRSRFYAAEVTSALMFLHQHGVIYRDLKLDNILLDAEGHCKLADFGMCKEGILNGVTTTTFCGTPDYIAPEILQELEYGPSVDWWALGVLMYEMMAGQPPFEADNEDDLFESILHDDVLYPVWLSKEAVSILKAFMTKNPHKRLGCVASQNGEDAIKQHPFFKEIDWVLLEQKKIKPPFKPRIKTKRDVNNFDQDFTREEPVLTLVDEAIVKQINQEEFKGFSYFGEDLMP
T2 sequence (P28336 whole entry): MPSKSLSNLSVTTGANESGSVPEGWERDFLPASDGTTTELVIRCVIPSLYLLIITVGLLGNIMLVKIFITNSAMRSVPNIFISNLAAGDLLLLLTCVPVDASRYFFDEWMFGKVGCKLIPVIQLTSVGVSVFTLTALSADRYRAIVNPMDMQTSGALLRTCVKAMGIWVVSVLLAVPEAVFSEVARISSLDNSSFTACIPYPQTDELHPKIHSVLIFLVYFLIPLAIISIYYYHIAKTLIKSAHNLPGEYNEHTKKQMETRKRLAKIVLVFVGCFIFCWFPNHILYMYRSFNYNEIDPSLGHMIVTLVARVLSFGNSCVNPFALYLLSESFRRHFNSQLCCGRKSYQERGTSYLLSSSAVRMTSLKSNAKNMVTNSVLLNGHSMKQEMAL
T3 sequence (P14416 1-414 isoform P14416-2): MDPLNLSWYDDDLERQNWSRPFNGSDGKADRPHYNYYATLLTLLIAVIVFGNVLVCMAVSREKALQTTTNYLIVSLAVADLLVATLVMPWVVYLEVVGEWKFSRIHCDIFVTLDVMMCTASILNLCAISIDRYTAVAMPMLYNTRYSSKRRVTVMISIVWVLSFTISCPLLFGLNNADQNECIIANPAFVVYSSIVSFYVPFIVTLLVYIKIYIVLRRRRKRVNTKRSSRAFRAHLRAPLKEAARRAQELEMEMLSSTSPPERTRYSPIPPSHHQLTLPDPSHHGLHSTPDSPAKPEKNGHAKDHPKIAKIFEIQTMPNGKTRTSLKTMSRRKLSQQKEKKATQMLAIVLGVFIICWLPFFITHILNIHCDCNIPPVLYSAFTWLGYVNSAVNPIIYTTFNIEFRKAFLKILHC
Sequence of Angiotensine AT1 (P30556 whole entry): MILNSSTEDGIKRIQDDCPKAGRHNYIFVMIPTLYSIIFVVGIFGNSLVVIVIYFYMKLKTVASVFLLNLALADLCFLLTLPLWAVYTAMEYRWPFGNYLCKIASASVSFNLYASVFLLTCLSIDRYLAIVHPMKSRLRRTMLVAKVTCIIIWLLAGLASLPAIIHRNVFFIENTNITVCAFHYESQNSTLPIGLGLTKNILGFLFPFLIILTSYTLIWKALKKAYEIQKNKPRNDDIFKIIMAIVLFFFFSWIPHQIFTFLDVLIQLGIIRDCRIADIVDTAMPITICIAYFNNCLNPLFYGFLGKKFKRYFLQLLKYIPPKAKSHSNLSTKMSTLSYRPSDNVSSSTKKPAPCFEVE
T8 sequence (P25929 whole entry): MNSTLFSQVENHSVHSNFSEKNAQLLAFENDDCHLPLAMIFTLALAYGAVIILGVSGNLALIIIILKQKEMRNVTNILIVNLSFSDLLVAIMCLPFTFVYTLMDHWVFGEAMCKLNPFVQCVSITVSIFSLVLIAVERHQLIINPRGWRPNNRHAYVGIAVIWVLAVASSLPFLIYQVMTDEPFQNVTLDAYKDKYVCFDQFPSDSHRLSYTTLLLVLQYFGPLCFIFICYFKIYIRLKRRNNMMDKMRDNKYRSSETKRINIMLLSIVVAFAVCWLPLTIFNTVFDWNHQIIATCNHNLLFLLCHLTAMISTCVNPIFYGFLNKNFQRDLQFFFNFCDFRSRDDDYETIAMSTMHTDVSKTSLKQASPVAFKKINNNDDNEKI
Sequence of PDE4D2 (Q08499 303-809 limits assumed): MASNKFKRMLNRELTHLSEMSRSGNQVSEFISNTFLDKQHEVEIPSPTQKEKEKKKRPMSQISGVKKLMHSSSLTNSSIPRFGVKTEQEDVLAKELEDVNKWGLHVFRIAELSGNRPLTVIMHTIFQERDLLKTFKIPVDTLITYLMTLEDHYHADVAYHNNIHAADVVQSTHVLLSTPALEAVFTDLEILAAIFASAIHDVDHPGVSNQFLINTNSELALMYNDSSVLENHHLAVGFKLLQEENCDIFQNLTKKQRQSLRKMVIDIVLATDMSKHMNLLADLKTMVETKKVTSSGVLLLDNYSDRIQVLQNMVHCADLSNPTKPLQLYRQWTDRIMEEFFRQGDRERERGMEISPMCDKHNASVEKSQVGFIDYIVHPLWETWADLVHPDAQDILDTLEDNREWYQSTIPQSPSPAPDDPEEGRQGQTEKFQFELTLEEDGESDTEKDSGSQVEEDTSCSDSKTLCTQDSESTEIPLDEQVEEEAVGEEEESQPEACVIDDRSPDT
Sequence of Somatostatin sst1 (P30872 whole entry): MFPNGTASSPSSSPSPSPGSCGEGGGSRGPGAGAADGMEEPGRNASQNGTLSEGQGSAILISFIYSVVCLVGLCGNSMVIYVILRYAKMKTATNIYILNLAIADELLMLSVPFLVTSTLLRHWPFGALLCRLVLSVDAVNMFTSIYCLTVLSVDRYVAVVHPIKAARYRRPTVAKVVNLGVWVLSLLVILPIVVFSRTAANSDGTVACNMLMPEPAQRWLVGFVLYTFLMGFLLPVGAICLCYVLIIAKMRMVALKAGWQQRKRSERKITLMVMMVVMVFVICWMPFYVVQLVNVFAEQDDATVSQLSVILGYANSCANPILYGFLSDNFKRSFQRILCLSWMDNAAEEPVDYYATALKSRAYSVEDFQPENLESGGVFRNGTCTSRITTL
Sequence of Muscarinic M2 (P08172 whole entry): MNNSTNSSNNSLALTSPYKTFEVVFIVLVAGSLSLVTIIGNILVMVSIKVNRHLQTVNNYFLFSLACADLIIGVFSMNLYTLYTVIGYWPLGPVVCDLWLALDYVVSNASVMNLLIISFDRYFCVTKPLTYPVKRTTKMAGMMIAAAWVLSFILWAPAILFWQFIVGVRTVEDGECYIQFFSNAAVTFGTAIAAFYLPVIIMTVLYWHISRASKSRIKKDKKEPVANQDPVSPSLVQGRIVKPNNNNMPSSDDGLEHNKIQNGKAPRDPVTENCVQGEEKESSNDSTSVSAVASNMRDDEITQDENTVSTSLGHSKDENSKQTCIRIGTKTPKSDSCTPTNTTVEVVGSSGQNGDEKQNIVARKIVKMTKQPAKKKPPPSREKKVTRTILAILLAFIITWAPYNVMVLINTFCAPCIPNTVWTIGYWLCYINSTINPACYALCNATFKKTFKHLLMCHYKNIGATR
T14 sequence (P30518 whole entry): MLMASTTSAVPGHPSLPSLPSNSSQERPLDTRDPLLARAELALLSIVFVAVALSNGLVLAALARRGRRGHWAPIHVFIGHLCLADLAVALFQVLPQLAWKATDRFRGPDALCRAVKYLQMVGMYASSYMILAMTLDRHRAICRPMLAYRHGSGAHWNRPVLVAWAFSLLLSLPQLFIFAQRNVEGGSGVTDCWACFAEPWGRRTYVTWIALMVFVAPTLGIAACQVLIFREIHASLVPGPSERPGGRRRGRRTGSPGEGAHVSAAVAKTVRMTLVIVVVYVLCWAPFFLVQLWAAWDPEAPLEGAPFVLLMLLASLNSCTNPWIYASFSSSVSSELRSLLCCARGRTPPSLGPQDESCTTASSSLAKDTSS
Sequence of Cannabinoid CB2 (P34972 whole entry): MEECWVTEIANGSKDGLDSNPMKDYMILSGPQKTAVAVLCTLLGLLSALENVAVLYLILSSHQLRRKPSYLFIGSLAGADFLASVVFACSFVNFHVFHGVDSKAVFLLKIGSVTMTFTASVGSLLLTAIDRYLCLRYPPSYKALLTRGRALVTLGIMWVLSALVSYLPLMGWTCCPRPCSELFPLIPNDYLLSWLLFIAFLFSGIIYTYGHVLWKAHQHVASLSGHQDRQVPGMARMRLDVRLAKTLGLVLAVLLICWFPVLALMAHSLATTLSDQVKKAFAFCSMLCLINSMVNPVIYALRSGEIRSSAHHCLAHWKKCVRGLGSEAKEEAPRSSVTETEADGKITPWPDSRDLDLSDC

## Cc1cc(-c2ncnn2C)c2cccc(OCc3c(Cl)cc(F)cc3[C@H](C)NC(=O)COC(F)F)c2n1 [Compound 3, (S)-N-(1-(3-chloro-5-fluoro-2-((2-methyl-4-(1-methyl-1H-1,2,4-triazol-5-yl)quinolin-8-yloxy)methyl)phenyl)ethyl)-2-(difluoromethoxy)acetamide]
Rat B2 receptor
  IC50: 1030 nM
  Kb: 147 nM
[1]
  % Inhibition @ 10 µM: -25.8%
Bombesin BB1
  inhibition at 10 µM: 6.7%
Dopamine D2S
  inhibition at 10 µM: -2.7%
Endothelin ETA
  inhibition at 10 µM: -2.1%
[2]
  inhibition at 10 µM: -8%
Kainate
  % Inhibition @ 10 µM: -4.4%
Melanocortin MC4
  inhibition at 10 µM: 7.1%
Melatonin MT2 (ML1B)
  inhibition at 10 µM: 4.8%
Neuropeptide Y1
  inhibition at 10 µM: -2.6%
[3]
  inhibition at 10 µM: -1%
Orexin OX2
  inhibition at 10 µM: 25.9%
[4]
  % Inhibition @ 10 µM: 6.3%
Prostanoid EP1
  inhibition at 10 µM: 80%
Serotonin 5-HT2A
  inhibition at 10 µM: -3.8%
Serotonin 5-HT4 e
  inhibition at 10 µM: -0.9%
Somatostatin sst1
  inhibition at 10 µM: -2%
PDE4D2
  inhibition at 10 µM: 4.4%
PDE5 (non-selective)
  inhibition at 10 µM: 15.5%
PKCε
  inhibition at 10 µM: 6.8%
Vasopressin V2
  inhibition at 10 µM: -15.1%
Adenosine A2B
  inhibition at 10 µM: 3.6%
Angiotensine AT1
  inhibition at 10 µM: -4.1%
Cannabinoid CB2
  inhibition at 10 µM: -17.7%
Muscarinic M2
  inhibition at 10 µM: -12.4%
Muscarinic M4
  inhibition at 10 µM: -1.3%
Muscarinic M5
  inhibition at 10 µM: 5.1%
